US20040242660A1, “Substituted oxazolidinones for combinational therapy” (priority 2001, published 2004)
Like-named read-outs stand apart in the source and are kept apart here.

Assays:
[1] = target: human factor Xa (FXa) (Homo sapiens, UniProt P00742); test: Measurement of factor Xa inhibition (chromogenic substrate); type: biochemical
Description: a.1) Measurement of Factor Xa Inhibition
In this case, factor Xa eliminates p-nitroaniline from the chromogenic substrate.
The test substances were dissolved in various concentrations in DMSO and incubated with human FXa (0.5 nmol/l dissolved in 50 mmol/l tris buffer [C,C,C-tris(hydroxymethyl)-aminomethane], 150 mmol/l NaCl, 0.1% BSA (bovine serum albumine), pH=8,3) at 25° C. for 10 minutes. Pure DMSO serves as control.

[2] = test system: thrombus formation in an arteriovenous shunt; test: Arteriovenous shunt model (rat), antithrombotic effect; type: in vivo
Description: b.1) Arteriovenous Shunt Model (Rat) Fasting male rats (strain: HSD CPB:WU) weighing 200-250 g were anesthetized with a Rompun/Ketavet solution (12 mg/kg/50 mg/kg). Thrombus formation was induced in an arteriovenous shunt by a method based on that described by Christopher N. Berry et al., Br. J. Pharmacol. (1994), 113, 1209-1214. For this purpose, the left jugular vein and the right carotid artery were exposed. An extracorporeal shunt was formed between the two vessels using a 10 cm-long polyethylene tube (PE 60). This polyethylene tube was secured in the middle by tying in a further 3 cm-long polyethylene tube (PE 160) which contained a roughened nylon thread forming a loop to produce a thrombogenic surface. The extracorporeal circulation was maintained for 15 minutes. The shunt was then removed and the nylon thread with the thrombus was immediately weighed. The blank weight of the nylon thread had been found before the start of the experiment. The test substances were administered either intravenously through the tail vein or orally by gavage to conscious animals before setting up the extracorporeal circulation.

[3] = test system: thrombus in the carotid artery of rats; test: Rat thrombosis model (FeCl3-induced carotid artery thrombus), combinations; type: in vivo; details: 1 mg/kg of each active ingredient; for Reduction in thrombus weight after oral treatment: 10 rats per group; for Reduction in thrombus weight after oral treatment / Statistical significance of the reduction in thrombus weight (Student's t-test): oral; for Statistical significance of the reduction in thrombus weight (Student's t-test): p<0.05 regarded as significant; for Antithrombotic effect: single dosage or combination
Description: a) In vivo Investigations in a Rat Thrombosis Model The carotid artery of rats (HSD CPB:WU, Harlan Winkelmann) was exposed under anesthesia. A piece of filter paper impregnated with an aqueous 10% strength FeCl3 solution (dissolved in 1N aqueous hydrochloric acid) was cautiously pushed underneath the exposed vessel in accordance with the method described by Kurz et al. […] After 3 minutes, the piece of filter paper was removed. The carotid artery was removed after 15 minutes, and the thrombus was detached and immediately weighed. […] The animals in the control group had been treated with the corresponding solvent. The statistical significance was calculated using Student's t-test. Values with p<0.05 are regarded as a statistically significant effect (Medical Statistics, M J Campbell, […], Second Edition, John Wiley & Sons).

[4] = intravenous administration, read-out: ED50 [mg/kg] i.v.
[5] = oral administration, read-out: ED50 [mg/kg] p.o.

human factor Xa (FXa), sequence (P00742 235-488 limits assumed): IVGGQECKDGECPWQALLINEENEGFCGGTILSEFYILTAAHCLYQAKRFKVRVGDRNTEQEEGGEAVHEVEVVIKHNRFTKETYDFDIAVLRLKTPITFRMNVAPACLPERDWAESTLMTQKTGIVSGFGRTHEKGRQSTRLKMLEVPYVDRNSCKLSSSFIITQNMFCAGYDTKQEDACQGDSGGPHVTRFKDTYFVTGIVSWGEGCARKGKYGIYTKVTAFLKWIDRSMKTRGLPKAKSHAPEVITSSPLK
human factor Xa (FXa), sequence (P00742 41-179 partner limits assumed): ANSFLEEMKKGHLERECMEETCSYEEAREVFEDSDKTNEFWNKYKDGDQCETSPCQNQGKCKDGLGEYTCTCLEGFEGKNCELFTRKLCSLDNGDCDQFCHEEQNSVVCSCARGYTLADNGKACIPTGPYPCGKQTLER

With O=C(NC[C@H]1CN(c2ccc(N3CCCCC3=O)cc2)C(=O)O1)c1ccc(Cl)s1 [Example 162, 5-Chloro-N-({(5S)-2-oxo-3-[4-(2-oxo-1-piperidinyl)phenyl]-1,3-oxazolidin-5-yl}-methyl)-2-thiophenecarboxamide] as the molecule, how does the IC50 ([1]; factor Xa inhibition) read?
The IC50 was 2.8 nM.

What about the ED50 [2, 4] of the same molecule?
Its ED50 is 3 mg/kg.

With Cc1cc(N2CC(CNC(=O)c3ccc(Cl)s3)OC2=O)ccc1N1CCOCC1=O (stereo not drawn) [Example 115, 5-Chloro-N-({3-[3-methyl-4-(3-oxo-4-morpholinyl)phenyl]-2-oxo-1,3-oxazolidin-5-yl}methyl)-2-thiophenecarboxamide] as the molecule, how does the ED50 [2, 4] read?
Its ED50 is 3 mg/kg.

Which results are given for COC(=O)[C@H](c1ccccc1Cl)N1CCc2sccc2C1 [Clopidogrel, clopidogrel, reference compound]?
Reduction in thrombus weight after oral treatment [3]: 28%; Statistical significance of the reduction in thrombus weight (Student's t-test) [3]: no effect (p > 0.05); Antithrombotic effect [3]: inactive

O=C(NC[C@H]1CN(c2ccc(N3CCOCC3)c(F)c2)C(=O)O1)c1ccc(Cl)s1 [Example 1, 5-chloro-N-{[(5S)-3-(3-fluoro-4-morpholinophenyl)-2-oxo-1,3-oxazolidin-5-yl]methyl}-2-thiophenecarboxamide] was tested. Which ED50 [2, 4] did it give?
The ED50 was 10 mg/kg.

O=C(NCC1CN(c2ccc(N3CCOCC3=O)c(F)c2)C(=O)O1)c1ccc(Cl)s1 (stereo not drawn) [Example 95, 5-Chloro-N-({3-[3-fluoro-4-(3-oxo-4-morpholinyl)phenyl]-2-oxo-1,3-oxazolidin-5-yl}methyl)-2-thiophenecarboxamide] was tested. Which ED50 [2, 4] did it give?
The ED50 was 3 mg/kg.

For O=C(NC[C@H]1CN(c2ccc(N3CCCC3=O)cc2)C(=O)O1)c1ccc(Cl)s1 [Example 17, 5-Chloro-N-({(5S)-2-oxo-3-[4-(2-oxo-1-pyrrolidinyl)phenyl]-1,3-oxazolidin-5-yl}methyl)-2-thiophenecarboxamide], which ED50 [2, 4] is on record?
Its ED50 is 6 mg/kg.

With Nc1cc(N2CC(CNC(=O)c3ccc(Cl)s3)OC2=O)ccc1N1CCOCC1=O (stereo not drawn) [Example 123, N-({3-[3-Amino-4-(3-oxo-4-morpholinyl)phenyl]-2-oxo-1,3-oxazolidin-5-yl}-methyl)-5-chloro-2-thiophenecarboxamide] as the molecule, how does the ED50 [2, 5] read?
Its ED50 is 3 mg/kg.

Which “Reduction in thrombus weight after oral treatment” value [3] does the source give for O=C(NC[C@H]1CN(c2ccc(N3CCOCC3=O)cc2)C(=O)O1)c1ccc(Cl)s1 [Example 44, 5-Chloro-N-({(5S)-2-oxo-3-[4-(3-oxo-4-morpholinyl)phenyl]-1,3-oxazolidin-5-yl}methyl)-2-thiophenecarboxamide] here?
The value was 22%.

What about the “Statistical significance of the reduction in thrombus weight (Student's t-test)” value [3] of the same molecule?
Its value is “no effect (p > 0.05)”.

What about the “Antithrombotic effect” value [3] of the same molecule?
The value was “inactive”.

And the ED50 [2, 5]?
The ED50 was 3 mg/kg.

For O=C(NCC1CN(c2ccc(N3CCOCC3=O)c(C(F)(F)F)c2)C(=O)O1)c1ccc(Cl)s1 (stereo not drawn) [Example 114, 5-Chloro-N-({2-oxo-3-[4-(3-oxo-4-morpholinyl)-3-(trifluoromethyl)phenyl]-1,3-oxazolidin-5-yl}methyl)-2-thiophenecarboxamide], which ED50 [2, 4] is on record?
The ED50 was 3 mg/kg.

NCC(=O)Nc1ccc(N2CC(CNC(=O)c3ccc(Cl)s3)OC2=O)cc1 (stereo not drawn) [Example 150, 5-Chloro-N-({3-[4-(glycylamino)phenyl]-2-oxo-1,3-oxazolidin-5-yl}methyl)-2-thiophenecarboxamide] was tested. Which IC50 ([1]; factor Xa inhibition) did it give?
The IC50 was 2000 nM.

Which IC50 [1] does the source give for O=C(NCC1CN(c2ccc(N3CCCC(O)C3)c(F)c2)C(=O)O1)c1ccc(Cl)s1 (stereo not drawn) [Example 134] here?
Its IC50 is 480 nM.

How did the IC50 ([1]; factor Xa inhibition) turn out when CC(=O)NCc1ccc(N2CC(CNC(=O)c3ccc(Cl)s3)OC2=O)cc1 (stereo not drawn) [Example 153, N-[(3-{4-[(Acetylamino)methyl]phenyl}-2-oxo-1,3-oxazolidin-5-yl)methyl]-5-chloro-2-thiophenecarboxamide] was run?
The IC50 was 600 nM.
